Data from patent US20070087352A9, “Inhibitors for androgen antagonist refractory prostate cancer” (priority 2003, published 2007).

Legend:
[1] = biological target: T1, hERα-LBD (Homo sapiens, UniProt P03372); test: Electrophoretic mobility shift assay (native PAGE); type: binding; conditions: 2-fold or 10-fold molar excess of peptide, 6% native PAGE
T1 sequence (P03372 311-547 limits assumed): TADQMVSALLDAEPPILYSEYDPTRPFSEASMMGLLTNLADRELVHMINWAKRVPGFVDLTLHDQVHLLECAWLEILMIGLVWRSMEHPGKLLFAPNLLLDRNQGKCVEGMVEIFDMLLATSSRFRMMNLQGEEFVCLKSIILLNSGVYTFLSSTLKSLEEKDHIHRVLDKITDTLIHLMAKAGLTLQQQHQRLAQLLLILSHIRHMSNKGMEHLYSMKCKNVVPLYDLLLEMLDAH
Method: Eight microgram samples of purified hERα-LBD bound to either DES or OHT were incubated in the absence of the GRIP1 NR Box 2 peptide (SEQ ID NO:4), i.e., buffer alone, or in the presence of either a 2-fold or 10-fold molar excess of the GRIP1 NR Box 2 peptide. The binding reactions were performed on ice for 45 minutes in 10 μl of buffer containing 20 mM Tris, pH 8.1, 1 mM DTT, and 200 mM NaCl and then subjected to 6% native PAGE. Gels were stained with GELCODE Blue Stain reagent (Pierce).
In the presence of the NR box 2 peptide, the migration of the DES-LBD complex was retarded. In contrast, peptide addition had no effect on the mobility of the OHT-LBD complex.

[2] = biological target: T2, agonist-bound ERα LBD (Homo sapiens, UniProt P03372); test: Competition assays of GRIP1 NR Box 2 peptide; conditions: binding to agonist-bound ERα LBD
T2 sequence (P03372 311-547 limits assumed): T1 sequence (P03372 311-547 limits assumed)

migration of the DES-LBD complex ([1]; hERα-LBD bound to agonist DES): retarded
mobility of the OHT-LBD complex ([1]; hERα-LBD bound to antagonist OHT): no effect
IC50 [2]: < 0.4 µM
Substance: H-KHKILHRLLQDSS-OH [GRIP1 NR Box 2 peptide]
